Results from patent US9688681B2, “Heterocyclic compounds as pest control agents” (BAYER CROPSCIENCE AKTIENGESELLSCHAFT, priority 2013, dated 2017).

Tests used:
[1] = test system: green peach aphid (Myzus persicae); settings: application rate 20 ppm, after 6 days, bell pepper plants sprayed to runoff
Protocol: Myzus persicae—Spray Test
Solvent: 7 parts by weight of dimethylformamide
Emulsifier: alkylaryl polyglycol ether
To produce an appropriate active ingredient formulation, 1 part by weight of active ingredient is dissolved using the specified parts by weight of solvent and made up with water containing an emulsifier concentration of 1000 ppm until the desired concentration is attained. To produce further test concentrations, the preparation is diluted with emulsifier-containing water. If the addition of ammonium salts or/and penetrants is required, these are each added in a concentration of 1000 ppm to the formulation solution.
After 6 days, the kill in % is determined. 100% means that all the aphids have been killed; 0% means that no aphids have been killed.

[2] = log P by HPLC on reversed-phase C18 columns (OECD Guideline 117); assay type: physicochemical
[3] = test system: green peach aphid (Myzus persicae); assay: Myzus persicae spray test on Chinese cabbage leaf discs; assay type: in vivo; settings: application rate 500 g/ha, after 6 days
From the text: Discs of Chinese cabbage leaves (Brassica pekinensis) infested by all stages of the green peach aphid (Myzus persicae) are sprayed with an active ingredient formulation of the desired concentration.

[4] = test system: southern root-knot nematode (Meloidogyne incognita); settings: application rate 20 ppm, after 14 days, lettuce in sand
Protocol: Meloidogvne incognita Test (MELGIN)
Solvent: 125.0 parts by weight of acetone
To produce an appropriate active ingredient formulation, 1 part by weight of active ingredient is mixed with the specified amounts of solvent and the concentrate is diluted to the desired concentration with water.
Vessels are filled with sand, active ingredient solution, an egg/larvae suspension of the southern root-knot nematode (Meloidogyne incognita) and lettuce seeds. The lettuce seeds germinate and the plants develop.
After 14 days, the nematicidal efficacy in % is determined by the formation of galls.

[5] = HPLC RP C18, acidic range pH 2.7, 0.1% aqueous formic acid/acetonitrile
[6] = HPLC RP C18, neutral range pH 7.8, 0.001 molar aqueous ammonium hydrogencarbonate/acetonitrile

Structure (SMILES)	efficacy (kill) [1] [%]	logP[a] [2, 5]	logP[b] [2, 6]	efficacy (aphids killed) [3] [%]	nematicidal efficacy (formation of galls) [4] [%]	logP[a] ([2]; pH 2.7)	logP[b] ([2]; pH 7.8)
CSCCn1cnc2nn(-c3cccnc3)cc2c1=O [compound 27]	90	1.13	1.19				
O=c1c2cn(-c3cccnc3)nc2ncn1-c1ccc(Cl)cc1 [compound 14]		1.74		90	100		
CSCC(C)n1cnc2nn(-c3cccnc3)cc2c1=O (stereo not drawn) [compound 31]	95	1.36	1.40				
CC(C)n1cnc2nn(-c3cncnc3)cc2c1=O [compound 37]				100		0.93	0.92
CN(C)C(=O)Cn1cnc2nn(-c3cccnc3)cc2c1=O [compound 22]		0.47	0.51	90			
